“Also recorded” adds a separate entry of the source. Where two headings read alike, the source gives them in different places. Non-standard residues stand in square brackets, D forms with d. Residues, ends and D or L forms follow the SMILES beside them. *: point of attachment. Nle = CCCC[C@H](N)C(=O)O; Cbz = O=C(OCc1ccccc1)*
How the values were obtained:
ATP1A1 = type: cell-based, human
PrP^C [1] = settings: for effect of co-incubated inhibitor on ouabain-induced reduction in PrP^C levels: 25 nM ouabain or 20 nM ouabain; for effect on steady-state PrP^C levels: 3-day exposure (FIG. 7), ouabain 20 nM
ReN VM cells [2] = assay: cells; type: cell-based; settings: Homo sapiens, 168 h, read-out: concentration at which metabolic activity dropped to 50%
ReN VM cells [3] = assay: cells; type: cell-based; settings: Homo sapiens, 168 h, read-out: cellular toxicity: concentration at which ATP levels drop to 50% of mock-treated control
ReN VM cells [4] = assay: cells; type: cell-based, human
ReN VM cells [5] = settings: human
NKAs [6] = settings: cited from earlier work
[7] = mouse, in vivo, sc
ATP1A2 = type: cell-based, human
ATP1A3 = type: cell-based, human
GFAP = type: cell-based, human
NKA β subunit = type: cell-based, human
[8] = test system: class III beta tubulin (Tuj-1); type: cell-based, human
HeLa cells = settings: cited from earlier work
[9] = cited from earlier work
[10] = test system: 5′-ectonucleotidase (5′-NT); type: cell-based, human
NKAs [11] = test system: NKAs
NKAs [12] = settings: cited from earlier work; remark: listed apart in the source
PrP^C [13] = settings: literature screens; cited from earlier work
[14] = differentiated ReN VM cells, one-week exposure

**Q.** Which results are given for bafilomycin?
**A.** effect of co-incubated inhibitor on ouabain-induced reduction in ATP1A1 levels (ATP1A1): rescued; effect of co-incubated inhibitor on ouabain-induced reduction in PrP^C levels (PrP^C [1]): rescued

**Q.** With calpastatin as the compound, how does the “effect of co-incubated inhibitor on ouabain-induced reduction in ATP1A1 levels” value (ATP1A1) read?
**A.** did neither prevent

**Q.** And the “effect of co-incubated inhibitor on ouabain-induced reduction in PrP^C levels” value (PrP^C [1])?
**A.** did neither prevent

**Q.** With `C[C@H]1O[C@@H](O[C@H]2[C@@H](O)C[C@H](O[C@H]3[C@@H](O)C[C@H](O[C@H]4CC[C@@]5(C)[C@H](CC[C@@H]6[C@@H]5C[C@@H](O)[C@]5(C)[C@@H](C7=CC(=O)OC7)CC[C@]65O)C4)O[C@@H]3C)O[C@@H]2C)C[C@H](O)[C@@H]1O` [digoxin] as the compound, how does the IC50 (ReN VM cells [2]) read?
**A.** ~50 nM

**Q.** And the IC50 (ReN VM cells [3])?
**A.** ~25 nM

**Q.** What about the “increase of cellular calcium levels” value (ReN VM cells [4]) of the same compound?
**A.** approximately 20%

**Q.** And the IC50 (ReN VM cells [4]; Homo sapiens, 168 h, read-out: concentration giving half maximum intracellular calcium levels)?
**A.** 30 nM

**Q.** And the “level above which all three measures of cellular health dropped” value (ReN VM cells [5])?
**A.** Above 10 nM

**Q.** And the “time to dissociate from NKAs” value (NKAs [6])?
**A.** 18 h

**Q.** For `CC(C)C[C@@H](C=O)NC(=O)[C@H](CC(C)C)NC(=O)[C@H](CC(C)C)NC(=O)OCc1ccccc1` [MG132] (Cbz-Leu-Leu-Leu-aldehyde), which “effect of co-incubated inhibitor on ouabain-induced reduction in ATP1A1 levels” value (ATP1A1) is on record?
**A.** caused an increase in ATP1A1 steady-state levels

**Q.** What about the “effect of co-incubated inhibitor on ouabain-induced reduction in PrP^C levels” value (PrP^C [1]) of the same compound?
**A.** failed to block

**Q.** With `COC1C[C@H](O[C@H]2CC[C@]3(C)C4CC[C@]5(C)[C@@H](C6=CC(=O)OC6)[C@@H](OC(C)=O)C[C@]5(O)[C@@H]4CC[C@@H]3C2)OC(C)[C@@H]1O` (stereo partly drawn) [oleandrin, acetic acid [(3S,5R,10S,13R,14S,16S,17′R)-14-hydroxy-3-[[(2R,4S,5S,6S)-5-hydroxy-4-methoxy-6-methyl-2-tetrahydropyranyl]oxy]-10,13-dimethyl-17-(5-oxo-2H-furan-3-yl)-1,2,3,4,5,6,7,8,9,11,12,15,16,17-tetradecahydrocyclopenta[a]phenanthren-16-yl] ester] as the compound, how does the “concentration achieving similar reduction in ATP1A1 levels” value (ATP1A1) read?
**A.** 4 nM

**Q.** And the “concentration at which ATP1A1 levels rebound / increase” value (ATP1A1)?
**A.** around 2 nM

**Q.** What about the “potency of oleandrin relative to ouabain for similar reduction of ATP1A1 and PrP^C” value (PrP^C [1]; 7-day treatment, differentiated ReN VM cells) of the same compound?
**A.** approximately tenfold higher potency; also recorded: tenfold lower levels

**Q.** And the tolerated concentration (ReN VM cells [5])?
**A.** up to 2 nM

**Q.** What about the “brain levels relative to other organs” value [7] of the same compound?
**A.** lowest in the brain

**Q.** And the “time of rapid increase in heart, kidney and liver” value [7]?
**A.** 2 h

**Q.** With `COC1C[C@H](O[C@H]2CC[C@]3(C)C4CC[C@]5(C)[C@@H](C6=CC(=O)OC6)[C@@H](OC(C)=O)C[C@]5(O)[C@@H]4CC[C@@H]3C2)OC(C)C1=O` (stereo partly drawn) [I-3, 4′-dehydro-oleandrin] as the compound, how does the “concentration achieving similar reduction in ATP1A1 levels” value (ATP1A1) read?
**A.** 4 nM

**Q.** What about the “concentrations causing reduction of steady-state ATP1A1 levels” value (ATP1A1) of the same compound?
**A.** up to 16 nM

**Q.** What about the “effect of I-3 on steady-state ATP1A2 levels” value (ATP1A2) of the same compound?
**A.** declined as levels of exemplary compound I-3 were increased

**Q.** And the “concentration at which ATP1A3 levels reach a maximum” value (ATP1A3)?
**A.** 24 to 32 nM

**Q.** And the “concentration up to which ATP1A3 levels stayed unchanged” value (ATP1A3)?
**A.** up to 8 nM

**Q.** What about the “effect on steady-state GFAP levels” value (GFAP) of the same compound?
**A.** not paralleled by significant changes

**Q.** And the “effect on NKA β subunit levels” value (NKA β subunit)?
**A.** lesser, yet also pronounced reduction

**Q.** What about the “effect on Tuj-1 levels” value [8] of the same compound?
**A.** not paralleled by significant changes

**Q.** What about the “maximum reduction in steady-state PrP^C levels” value (PrP^C [1]; 12 nM, one week, ReN VM cells) of the same compound?
**A.** 84%

**Q.** What about the “concentration at which PrP^C signal rebounds / migrates differently in SDS-PAGE” value (PrP^C [1]; [14]) of the same compound?
**A.** 20 to 32 nM

**Q.** What about the “concentrations causing concentration-dependent reduction of steady-state PrP^C levels” value (PrP^C [1]; [14]) of the same compound?
**A.** 4 to 16 nM

**Q.** And the tolerated concentration (ReN VM cells [5])?
**A.** up to 30 nM

**Q.** And the toxic concentration (ReN VM cells [5])?
**A.** ≥ 40 nM

**Q.** What about the “concentration accumulated in the brain” value [7] of the same compound?
**A.** 38.8 nM

**Q.** What about the “time of highest levels in heart, kidney and liver” value [7] of the same compound?
**A.** 4 h

**Q.** And the IC50 (HeLa cells)?
**A.** 46 nM

**Q.** And the “cytotoxicity relative to oleandrin” value (HeLa cells)?
**A.** slightly reduced relative to oleandrin

**Q.** What about the “oral effectiveness (oral versus intravenous lethal doses), increase relative to oleandrin” value ([9]; cats) of the same compound?
**A.** approximately 20%

**Q.** What about the “oral toxicity relative to oleandrin” value ([9]; in vivo, po) of the same compound?
**A.** almost twofold lower

**Q.** For `CCCC[C@@H](C=O)NC(=O)[C@H](CC(C)C)NC(=O)[C@H](CC(C)C)NC(C)=O` [A6185, N-acetyl-Leu-Leu-norleucinal] (Ac-Leu-Leu-[Nle]-aldehyde), which “effect on steady-state ATP1A1 levels” value (ATP1A1) is on record?
**A.** no apparent effect

**Q.** What about the “effect on steady-state ATP1A2 levels” value (ATP1A2) of the same compound?
**A.** diminished

**Q.** And the “effect on steady-state ATP1A3 levels” value (ATP1A3)?
**A.** no apparent effect

**Q.** What about the “effect on ouabain-induced formation of faster migrating GFAP bands” value (GFAP) of the same compound?
**A.** blocked the excessive formation of faster migrating bands

**Q.** What about the “effect of co-incubated inhibitor on ouabain-induced reduction in PrP^C levels” value (PrP^C [1]) of the same compound?
**A.** did neither prevent

**Q.** What about the “effect on steady-state PrP^C levels” value (PrP^C [1]; ReN VM cells) of the same compound?
**A.** diminished

**Q.** Which results are given for `C[C@@H]1O[C@@H](O[C@H]2C[C@@H](O)[C@]3(CO)[C@H]4[C@H](O)C[C@]5(C)[C@@H](C6=CC(=O)OC6)CC[C@]5(O)[C@@H]4CC[C@]3(O)C2)[C@H](O)[C@H](O)[C@H]1O` [ouabain]?
**A.** concentration at which ATP1A1 levels rebound / increase (ATP1A1): 50 nM; concentrations causing reduction of steady-state ATP1A1 levels (ATP1A1): up to 30 nM; effect on steady-state ATP1A1 levels (ATP1A1): reduction; lowest concentration at which ATP1A1 reduction is apparent (ATP1A1): 3 nM; effect on steady-state ATP1A2 levels (ATP1A2): reduction; effect on steady-state ATP1A3 levels (ATP1A3): not affected; effect on GFAP antibody-reactive bands (GFAP): an increase in the intensity levels of bands that were reactive toward GFAP-directed antibodies; effect on steady-state 5′-NT levels [10]: increase; reduction of total 86Rb+ uptake by complete block of NKAs (NKAs [11]): 49%; effect on steady-state PrP^C levels (PrP^C [1]; ReN VM cells): reduction; concentration at which PrP^C signal rebounds / migrates differently in SDS-PAGE (PrP^C [1]; [14]): 50 nM; lowest concentration at which PrP^C reduction is apparent (PrP^C [1]; [14]): 3 nM; IC50 (NKAs [12]): 15 to 41 nM; time to dissociate from NKAs (NKAs [6]): less than two hours

**Q.** With `C=CC[C@@H]1/C=C(\C)C[C@H](C)C[C@H](OC)[C@H]2O[C@@](O)(C(=O)C(=O)N3CCCC[C@H]3C(=O)O[C@H](/C(C)=C/[C@@H]3CC[C@@H](O)[C@H](OC)C3)[C@H](C)[C@@H](O)CC1=O)[C@H](C)C[C@@H]2OC` [Tacrolimus] as the compound, how does the “effective concentrations for reducing PrP^C levels” value (PrP^C [13]) read?
**A.** micromolar

**Q.** For `CC(=O)N[C@@H](CSC(=O)[C@]1([C@@H](O)C(C)C)NC(=O)[C@H](C)[C@@H]1O)C(=O)O` [lactacystin], which “effect of co-incubated inhibitor on ouabain-induced reduction in ATP1A1 levels” value (ATP1A1) is on record?
**A.** caused an increase in ATP1A1 steady-state levels

**Q.** And the “effect of co-incubated inhibitor on ouabain-induced reduction in PrP^C levels” value (PrP^C [1])?
**A.** failed to block

Source: patent US20240166684A1 (priority 2021, published 2024)
